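Compound exposure: 48 hours, 5 concentrations, 96-well plates. GI50 marks 50% less growth.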 The source made the active and inactive calls. No stated cut-off is given here; in the data, active = GI50 up to about 1.1 µM and inactive = higher.
Key:
Experiment in all cases: DTP human tumour cell line panel, 48 h
M14 = system: M14
SK-OV-3 = system: SK-OV-3
A549 = system: A549
U-251 = system: U-251
HOP-62 = system: HOP-62
SF-539 = system: SF-539
MDA-MB-435 = system: MDA-MB-435
HOP-92 = system: HOP-92
MOLT-4 = system: MOLT-4
A498 = system: A498
OVCAR-4 = system: OVCAR-4
KM12 = system: KM12
EKVX = system: EKVX
NCI/ADR-RES = system: NCI/ADR-RES
K562 = system: K562
UACC-257 = system: UACC-257
SR = system: SR
SW-620 = system: SW-620
MDA-N = system: MDA-N
MCF7 = system: MCF7
LOX IMVI = system: LOX IMVI
OVCAR-3 = system: OVCAR-3
UACC-62 = system: UACC-62
SF-295 = system: SF-295
786-0 = system: 786-0
UO-31 = system: UO-31
HL-60 = system: HL-60
SNB-19 = system: SNB-19
OVCAR-5 = system: OVCAR-5
HT-29 = system: HT-29
NCI-H23 = system: NCI-H23
CCRF-CEM = system: CCRF-CEM
SF-268 = system: SF-268
T47D = system: T47D
PC-3 = system: PC-3
ACHN = system: ACHN
IGROV-1 = system: IGROV-1
CAKI-1 = system: CAKI-1
SNB-75 = system: SNB-75
TK-10 = system: TK-10
HCT-15 = system: HCT-15
COLO 205 = system: COLO 205
Malme-3M = system: Malme-3M
DU-145 = system: DU-145
NCI-H460 = system: NCI-H460
RPMI-8226 = system: RPMI-8226
SK-MEL-28 = system: SK-MEL-28
OVCAR-8 = system: OVCAR-8
RXF 393 = system: RXF 393
BT-549 = system: BT-549
MDA-MB-231 = system: MDA-MB-231
SK-MEL-5 = system: SK-MEL-5
SK-MEL-2 = system: SK-MEL-2
HCT-116 = system: HCT-116
Hs-578T = system: Hs-578T
NCI-H226 = system: NCI-H226
SN12C = system: SN12C
HCC 2998 = system: HCC 2998

How did the GI50 (M14) turn out when `N=C(N)NS(=O)(=O)c1ccc(N/N=C2/CCOC2=O)cc1` was run?
The GI50 was > 100 µM (inactive).

And the GI50 (SK-OV-3)?
The GI50 was 40.6 µM (inactive).

What about the GI50 (A549) of the same compound?
The GI50 was > 100 µM (inactive).

What about the GI50 (U-251) of the same compound?
The GI50 was 41.2 µM (inactive).

And the GI50 (HOP-62)?
Its GI50 is 26.6 µM (inactive).

What about the GI50 (SF-539) of the same compound?
Its GI50 is > 100 µM (inactive).

And the GI50 (MDA-MB-435)?
Its GI50 is > 100 µM (inactive).

What about the GI50 (HOP-92) of the same compound?
The GI50 was 63.2 µM (inactive).

What about the GI50 (MOLT-4) of the same compound?
Its GI50 is 2.95 µM (inactive).

And the GI50 (A498)?
The GI50 was > 100 µM (inactive).

What about the GI50 (OVCAR-4) of the same compound?
The GI50 was > 100 µM (inactive).

What about the GI50 (KM12) of the same compound?
Its GI50 is > 100 µM (inactive).

And the GI50 (EKVX)?
The GI50 was > 100 µM (inactive).

What about the GI50 (NCI/ADR-RES) of the same compound?
The GI50 was > 100 µM (inactive).

And the GI50 (K562)?
Its GI50 is 45.3 µM (inactive).

And the GI50 (UACC-257)?
The GI50 was > 100 µM (inactive).

What about the GI50 (SR) of the same compound?
The GI50 was 70.6 µM (inactive).

And the GI50 (SW-620)?
The GI50 was > 100 µM (inactive).

And the GI50 (MDA-N)?
Its GI50 is > 100 µM (inactive).

And the GI50 (MCF7)?
The GI50 was > 100 µM (inactive).

And the GI50 (LOX IMVI)?
The GI50 was > 100 µM (inactive).

What about the GI50 (OVCAR-3) of the same compound?
Its GI50 is > 100 µM (inactive).

And the GI50 (UACC-62)?
Its GI50 is > 100 µM (inactive).

And the GI50 (SF-295)?
The GI50 was 49.7 µM (inactive).

What about the GI50 (786-0) of the same compound?
The GI50 was > 100 µM (inactive).

What about the GI50 (UO-31) of the same compound?
The GI50 was > 100 µM (inactive).

What about the GI50 (HL-60) of the same compound?
Its GI50 is > 100 µM (inactive).

And the GI50 (SNB-19)?
The GI50 was > 100 µM (inactive).

What about the GI50 (OVCAR-5) of the same compound?
Its GI50 is > 100 µM (inactive).

And the GI50 (HT-29)?
Its GI50 is > 100 µM (inactive).

What about the GI50 (NCI-H23) of the same compound?
Its GI50 is > 100 µM (inactive).

What about the GI50 (CCRF-CEM) of the same compound?
The GI50 was > 100 µM (inactive).

And the GI50 (SF-268)?
Its GI50 is 45.1 µM (inactive).

What about the GI50 (T47D) of the same compound?
Its GI50 is 49.1 µM (inactive).

What about the GI50 (PC-3) of the same compound?
Its GI50 is 80.4 µM (inactive).

What about the GI50 (ACHN) of the same compound?
The GI50 was 63.5 µM (inactive).

And the GI50 (IGROV-1)?
Its GI50 is > 100 µM (inactive).

What about the GI50 (CAKI-1) of the same compound?
The GI50 was > 100 µM (inactive).

What about the GI50 (SNB-75) of the same compound?
Its GI50 is 21.7 µM (inactive).

What about the GI50 (TK-10) of the same compound?
The GI50 was > 100 µM (inactive).

What about the GI50 (HCT-15) of the same compound?
Its GI50 is over 100000 nM.

And the GI50 (COLO 205)?
Its GI50 is > 100 µM (inactive).

And the GI50 (Malme-3M)?
The GI50 was > 100 µM (inactive).

And the GI50 (DU-145)?
The GI50 was > 100 µM (inactive).

And the GI50 (NCI-H460)?
Its GI50 is > 100 µM (inactive).

What about the GI50 (RPMI-8226) of the same compound?
The GI50 was > 100 µM (inactive).

And the GI50 (SK-MEL-28)?
The GI50 was > 100 µM (inactive).

What about the GI50 (OVCAR-8) of the same compound?
The GI50 was 49.5 µM (inactive).

And the GI50 (RXF 393)?
Its GI50 is > 100 µM (inactive).

And the GI50 (BT-549)?
Its GI50 is > 100 µM (inactive).

What about the GI50 (MDA-MB-231) of the same compound?
The GI50 was > 100 µM (inactive).

What about the GI50 (SK-MEL-5) of the same compound?
Its GI50 is > 100 µM (inactive).

And the GI50 (SK-MEL-2)?
The GI50 was > 100 µM (inactive).

And the GI50 (HCT-116)?
The GI50 was > 100 µM (inactive).

And the GI50 (Hs-578T)?
Its GI50 is 57.8 µM (inactive).

And the GI50 (NCI-H226)?
The GI50 was > 100 µM (inactive).

And the GI50 (SN12C)?
Its GI50 is 65.5 µM (inactive).

And the GI50 (HCC 2998)?
The GI50 was > 100 µM (inactive).

For `C#CCn1c(=O)ccn(/C(=C\C(=O)OCC)C(=O)OCC)c1=O`, which GI50 (M14) is on record?
Its GI50 is 4.32 µM (inactive).

And the GI50 (SK-OV-3)?
The GI50 was 33 µM (inactive).

And the GI50 (A549)?
The GI50 was 22.8 µM (inactive).

What about the GI50 (U-251) of the same compound?
Its GI50 is 14.3 µM (inactive).

And the GI50 (HOP-62)?
The GI50 was 23.5 µM (inactive).

What about the GI50 (SF-539) of the same compound?
Its GI50 is 1.86 µM (inactive).

What about the GI50 (MDA-MB-435) of the same compound?
The GI50 was 7.33 µM (inactive).

What about the GI50 (HOP-92) of the same compound?
Its GI50 is 2.16 µM (inactive).

And the GI50 (MOLT-4)?
Its GI50 is 2.56 µM (inactive).

What about the GI50 (A498) of the same compound?
Its GI50 is 17.1 µM (inactive).

What about the GI50 (OVCAR-4) of the same compound?
Its GI50 is 2.85 µM (inactive).

And the GI50 (KM12)?
The GI50 was 22.8 µM (inactive).

And the GI50 (EKVX)?
The GI50 was 6.28 µM (inactive).

What about the GI50 (NCI/ADR-RES) of the same compound?
The GI50 was 7.64 µM (inactive).

And the GI50 (K562)?
Its GI50 is 3.54 µM (inactive).

And the GI50 (UACC-257)?
The GI50 was 15.3 µM (inactive).

What about the GI50 (SR) of the same compound?
Its GI50 is 5.02 µM (inactive).

What about the GI50 (SW-620) of the same compound?
Its GI50 is 1.68 µM (inactive).

What about the GI50 (MDA-N) of the same compound?
The GI50 was 15.8 µM (inactive).

And the GI50 (MCF7)?
Its GI50 is 2.87 µM (inactive).

What about the GI50 (LOX IMVI) of the same compound?
The GI50 was 12.2 µM (inactive).

What about the GI50 (OVCAR-3) of the same compound?
The GI50 was 5.61 µM (inactive).

What about the GI50 (UACC-62) of the same compound?
Its GI50 is 14.2 µM (inactive).

What about the GI50 (SF-295) of the same compound?
Its GI50 is 22.9 µM (inactive).

What about the GI50 (786-0) of the same compound?
Its GI50 is 2.3 µM (inactive).

And the GI50 (UO-31)?
Its GI50 is 13.5 µM (inactive).

And the GI50 (HL-60)?
The GI50 was 2.93 µM (inactive).

And the GI50 (SNB-19)?
Its GI50 is 19.9 µM (inactive).

What about the GI50 (OVCAR-5) of the same compound?
The GI50 was 13.5 µM (inactive).

And the GI50 (HT-29)?
Its GI50 is 2.04 µM (inactive).

What about the GI50 (NCI-H23) of the same compound?
Its GI50 is 14.9 µM (inactive).

And the GI50 (CCRF-CEM)?
Its GI50 is 0.381 µM (active).

What about the GI50 (SF-268) of the same compound?
The GI50 was 19.9 µM (inactive).

And the GI50 (T47D)?
Its GI50 is 3.52 µM (inactive).

And the GI50 (PC-3)?
Its GI50 is 15 µM (inactive).

And the GI50 (ACHN)?
Its GI50 is 1.64 µM (inactive).

And the GI50 (IGROV-1)?
Its GI50 is 9.08 µM (inactive).

And the GI50 (CAKI-1)?
The GI50 was 1.03 µM (active).

And the GI50 (SNB-75)?
Its GI50 is 20 µM (inactive).

And the GI50 (TK-10)?
Its GI50 is 1.81 µM (inactive).

And the GI50 (HCT-15)?
The GI50 was 1510 nM.

And the GI50 (COLO 205)?
Its GI50 is 1.11 µM (active).

What about the GI50 (Malme-3M) of the same compound?
Its GI50 is 1.89 µM (inactive).

What about the GI50 (DU-145) of the same compound?
The GI50 was 15.6 µM (inactive).

And the GI50 (NCI-H460)?
Its GI50 is 2.63 µM (inactive).

What about the GI50 (RPMI-8226) of the same compound?
Its GI50 is 2.73 µM (inactive).

And the GI50 (SK-MEL-28)?
Its GI50 is 11.7 µM (inactive).

And the GI50 (OVCAR-8)?
The GI50 was 2.31 µM (inactive).

What about the GI50 (RXF 393) of the same compound?
The GI50 was 2.08 µM (inactive).

And the GI50 (BT-549)?
Its GI50 is 12.4 µM (inactive).

And the GI50 (MDA-MB-231)?
The GI50 was 18.1 µM (inactive).

And the GI50 (SK-MEL-5)?
Its GI50 is 20.5 µM (inactive).

And the GI50 (SK-MEL-2)?
The GI50 was 16.4 µM (inactive).

And the GI50 (HCT-116)?
Its GI50 is 5.53 µM (inactive).

And the GI50 (Hs-578T)?
Its GI50 is 27.7 µM (inactive).

What about the GI50 (NCI-H226) of the same compound?
The GI50 was 19.9 µM (inactive).

What about the GI50 (SN12C) of the same compound?
The GI50 was 8.89 µM (inactive).

And the GI50 (HCC 2998)?
Its GI50 is 19.9 µM (inactive).

From ChEMBL document CHEMBL1201862, “PubChem BioAssay data set” (2004)
